# In PubChem BioAssay (NCI):
#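 Values below derive from 48-hour exposures of cells grown in 96-well plates, with endpoints linearly interpolated between the two concentrations bracketing the appropriate inhibition level. Here, GI50 denotes the concentration required for 50% inhibition of growth. TGI: total growth inhibition.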
# Experiments:
# Test in all cases: NCI-60 cell line screen, 48 h
# [1] = test system: 786-0 renal
# [2] = test system: A498 renal
# [3] = test system: A549 NSCLC
# [4] = test system: ACHN renal
# [5] = test system: BT-549 breast
# [6] = test system: CAKI-1 renal
# [7] = test system: CCRF-CEM leukemia
# [8] = test system: COLO 205 colon
# [9] = test system: DU-145 prostate
# [10] = test system: EKVX NSCLC
# [11] = test system: HCC-2998 colon
# [12] = test system: HCT-15 colon
# [13] = test system: HL-60(TB) leukemia
# [14] = test system: HOP-62 NSCLC
# [15] = test system: HOP-92 NSCLC
# [16] = test system: HS 578T breast
# [17] = test system: HT29 colon
# [18] = test system: IGROV1 ovarian
# [19] = test system: K-562 leukemia
# [20] = test system: KM12 colon
# [21] = test system: LOX IMVI melanoma
# [22] = test system: M14 melanoma
# [23] = test system: MALME-3M melanoma
# [24] = test system: MCF7 breast
# [25] = test system: MDA-MB-231 breast
# [26] = test system: MDA-MB-435
# [27] = test system: MOLT-4 leukemia
# [28] = test system: NCI-H226 lung
# [29] = test system: NCI-H23 lung
# [30] = test system: NCI-H460 lung
# [31] = test system: NCI-H522 lung
# [32] = test system: NCI/ADR-RES ovarian
# [33] = test system: OVCAR-3 ovarian
# [34] = test system: OVCAR-4 ovarian
# [35] = test system: OVCAR-5 ovarian
# [36] = test system: OVCAR-8 ovarian
# [37] = test system: PC-3 prostate
# [38] = test system: RPMI-8226 leukemia
# [39] = test system: RXF 393 renal
# [40] = test system: SF-268 CNS
# [41] = test system: SF-295 CNS
# [42] = test system: SF-539 CNS
# [43] = test system: SK-MEL-2 melanoma
# [44] = test system: SK-MEL-28 melanoma
# [45] = test system: SK-MEL-5 melanoma
# [46] = test system: SK-OV-3 ovarian
# [47] = test system: SN12C renal
# [48] = test system: SNB-19 CNS
# [49] = test system: SNB-75 CNS
# [50] = test system: SR leukemia
# [51] = test system: SW-620 colon
# [52] = test system: T-47D breast
# [53] = test system: TK-10 renal
# [54] = test system: U251 CNS
# [55] = test system: UACC-257 melanoma
# [56] = test system: UACC-62 melanoma
# [57] = test system: UO-31 renal
structure (smiles),measurement,setting,value
CCN(CC)CCOc1ccc(Nc2ncc3cc(-c4ccc(O)cc4)c(=O)n(C)c3n2)cc1,GI50,[1],391 nM
same,TGI,[1],2650 nM
same,GI50,[2],1500 nM
same,TGI,[2],13.4 µM
same,GI50,[3],13.8 µM
same,TGI,[3],30.7 µM
same,GI50,[4],61.8 nM
same,TGI,[4],17.5 µM
same,GI50,[5],3.33 µM
same,TGI,[5],16.5 µM
same,GI50,[6],37.9 nM
same,TGI,[6],16.1 µM
same,GI50,[7],845 nM
same,TGI,[7],> 26.4 µM
same,GI50,[8],1590 nM
same,TGI,[8],17.2 µM
same,GI50,[9],12.9 µM
same,TGI,[9],26.3 µM
same,GI50,[10],15.1 µM
same,TGI,[10],37.5 µM
same,GI50,[11],15.4 µM
same,TGI,[11],30.5 µM
same,GI50,[12],191 nM
same,TGI,[12],1750 nM
same,GI50,[13],14.6 µM
same,TGI,[13],40.3 µM
same,GI50,[14],2780 nM
same,TGI,[14],23.7 µM
same,GI50,[15],12.9 µM
same,TGI,[15],31.1 µM
same,GI50,[16],274 nM
same,TGI,[16],19.8 µM
same,GI50,[17],379 nM
same,TGI,[17],2790 nM
same,GI50,[18],80.3 nM
same,TGI,[18],15.9 µM
same,GI50,[19],39 nM
same,GI50,[20],2440 nM
same,TGI,[20],17.1 µM
same,GI50,[21],168 nM
same,TGI,[21],5.87 µM
same,GI50,[22],1270 nM
same,TGI,[22],7.12 µM
same,GI50,[23],734 nM
same,TGI,[23],2440 nM
same,GI50,[24],1070 nM
same,TGI,[24],2780 nM
same,GI50,[25],1170 nM
same,TGI,[25],7.36 µM
same,GI50,[26],983 nM
same,TGI,[26],16.1 µM
same,GI50,[27],200 nM
same,TGI,[27],21.8 µM
same,GI50,[28],4.61 µM
same,TGI,[28],22.6 µM
same,GI50,[29],12.7 µM
same,TGI,[29],36.2 µM
same,GI50,[30],3.77 µM
same,TGI,[30],8.85 µM
same,GI50,[31],2690 nM
same,TGI,[31],27.1 µM
same,GI50,[32],12.7 µM
same,TGI,[32],41.5 µM
same,GI50,[33],15.9 µM
same,TGI,[33],31.2 µM
same,GI50,[34],16.7 µM
same,TGI,[34],33.7 µM
same,GI50,[35],10.7 µM
same,TGI,[35],30.8 µM
same,GI50,[36],3.72 µM
same,TGI,[36],15.2 µM
same,GI50,[37],831 nM
same,TGI,[37],24.6 µM
same,GI50,[38],14.5 µM
same,TGI,[38],44.5 µM
same,GI50,[39],147 nM
same,TGI,[39],1670 nM
same,GI50,[40],1190 nM
same,TGI,[40],20.9 µM
same,GI50,[41],13.9 µM
same,TGI,[41],30.4 µM
same,GI50,[42],629 nM
same,TGI,[42],11.6 µM
same,GI50,[43],18.9 µM
same,TGI,[43],39.5 µM
same,GI50,[44],10.6 µM
same,TGI,[44],27.6 µM
same,GI50,[45],14.8 µM
same,TGI,[45],31 µM
same,GI50,[46],79.1 nM
same,TGI,[46],24.8 µM
same,GI50,[47],212 nM
same,TGI,[47],21.2 µM
same,GI50,[48],8.57 µM
same,TGI,[48],27.5 µM
same,GI50,[49],40.6 nM
same,TGI,[49],13.7 µM
same,GI50,[50],66.2 nM
same,TGI,[50],2760 nM
same,GI50,[51],2010 nM
same,TGI,[51],4.01 µM
same,GI50,[52],12.2 µM
same,TGI,[52],31.8 µM
same,GI50,[53],3.9 µM
same,TGI,[53],8.73 µM
same,GI50,[54],1400 nM
same,TGI,[54],2810 nM
same,GI50,[55],7.57 µM
same,TGI,[55],31.6 µM
same,GI50,[56],17.5 µM
same,TGI,[56],41 µM
same,GI50,[57],39.6 nM
same,TGI,[57],1600 nM
